In the supplement of paper PMC11451515:

Test system: SEM cells
Experiment: cell viability relative to DMSO control; higher = less cytotoxic
Conditions: 48 h
How it was run: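 Viability was expressed as a per-plate percentage of DMSO wells, with cell-free wells as background. Leukemia cells (NOMO1 or SEM at 500 cells/well, P12-Ichikawa at 1000 cells/well) were adapted for at least four passages in each medium and seeded in 1536-well plates (5 μl). Library compounds in DMSO were pin-dosed over an 11-point threefold series from 47 μM to 0.79 nM, and CellTiter-Glo One luminescence was read after 48 h at 37°C.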

[1] = HPLM + 10% dialyzed FBS, 0.000781 µM
[2] = HPLM + 10% dialyzed FBS, 0.00234 µM
[3] = HPLM + 10% dialyzed FBS, 0.00702 µM
[4] = HPLM + 10% dialyzed FBS, 0.0211 µM
[5] = HPLM + 10% dialyzed FBS, 0.0632 µM
[6] = HPLM + 10% dialyzed FBS, 0.19 µM
[7] = HPLM + 10% dialyzed FBS, 0.569 µM
[8] = HPLM + 10% dialyzed FBS, 1.71 µM
[9] = HPLM + 10% dialyzed FBS, 5.12 µM
[10] = HPLM + 10% dialyzed FBS, 15.4 µM
[11] = HPLM + 10% dialyzed FBS, 46.1 µM
[12] = RPMI 5 mM glucose + 10% FBS, 0.000781 µM
[13] = RPMI 5 mM glucose + 10% FBS, 0.00234 µM
[14] = RPMI 5 mM glucose + 10% FBS, 0.00702 µM
[15] = RPMI 5 mM glucose + 10% FBS, 0.0211 µM
[16] = RPMI 5 mM glucose + 10% FBS, 0.0632 µM
[17] = RPMI 5 mM glucose + 10% FBS, 0.19 µM
[18] = RPMI 5 mM glucose + 10% FBS, 0.569 µM
[19] = RPMI 5 mM glucose + 10% FBS, 1.71 µM
[20] = RPMI 5 mM glucose + 10% FBS, 5.12 µM
[21] = RPMI 5 mM glucose + 10% FBS, 15.4 µM
[22] = RPMI 5 mM glucose + 10% FBS, 46.1 µM
[23] = RPMI 5 mM glucose + 10% dialyzed FBS, 0.000781 µM
[24] = RPMI 5 mM glucose + 10% dialyzed FBS, 0.00234 µM
[25] = RPMI 5 mM glucose + 10% dialyzed FBS, 0.00702 µM
[26] = RPMI 5 mM glucose + 10% dialyzed FBS, 0.0211 µM
[27] = RPMI 5 mM glucose + 10% dialyzed FBS, 0.0632 µM
[28] = RPMI 5 mM glucose + 10% dialyzed FBS, 0.19 µM
[29] = RPMI 5 mM glucose + 10% dialyzed FBS, 0.569 µM
[30] = RPMI 5 mM glucose + 10% dialyzed FBS, 1.71 µM
[31] = RPMI 5 mM glucose + 10% dialyzed FBS, 5.12 µM
[32] = RPMI 5 mM glucose + 10% dialyzed FBS, 15.4 µM
[33] = RPMI 5 mM glucose + 10% dialyzed FBS, 46.1 µM

SMILES	cell viability [1] [%]	cell viability [2] [%]	cell viability [3] [%]	cell viability [4] [%]	cell viability [5] [%]	cell viability [6] [%]	cell viability [7] [%]	cell viability [8] [%]	cell viability [9] [%]	cell viability [10] [%]	cell viability [11] [%]	cell viability [12] [%]	cell viability [13] [%]	cell viability [14] [%]	cell viability [15] [%]	cell viability [16] [%]	cell viability [17] [%]	cell viability [18] [%]	cell viability [19] [%]	cell viability [20] [%]	cell viability [21] [%]	cell viability [22] [%]	cell viability [23] [%]	cell viability [24] [%]	cell viability [25] [%]	cell viability [26] [%]	cell viability [27] [%]	cell viability [28] [%]	cell viability [29] [%]	cell viability [30] [%]	cell viability [31] [%]	cell viability [32] [%]	cell viability [33] [%]
C[C@H](NC(=O)C(=O)Nc1ccccc1C(C)(C)C)C(=O)N[C@@H](CC(=O)O)C(=O)COc1c(F)c(F)cc(F)c1F	89.4	106	103	73.1	117	113	123	104	58.4	12.6	18.2	99.5	103	117	78	119	112	127	104	64.9	9.34	5.77	90.8	109	104	74.8	118	114	113	109	56.9	10.3	6.8
C[C@@H]1CC[C@@]2(OC1)O[C@H]3C[C@H]4[C@@H]5C/C=C6/C[C@H](CC[C@]6(C)[C@H]5CC[C@]4(C)[C@H]3[C@@H]2C)O[C@@H]7O[C@H](CO)[C@@H](O[C@@H]8O[C@@H](C)[C@H](O)[C@@H](O)[C@H]8O)[C@H](O)[C@H]7O[C@@H]9O[C@@H](C)[C@H](O)[C@@H](O)[C@H]9O	92.6	79.3	97.5	110	114	117	118	115	111	73.9	8.36												110	116	114	116	139	104	122	119	119	55	7.66
Cc1ccc(NC(=O)C2(c3ccc4c(c3)OC(F)(F)O4)CC2)nc1-c1cccc(C(=O)O)c1	106	87.4	109	111	93.5	13.7	16.4	16.7	9.88	9.04	6.17	87.2	86.6	91.6	91.5	62.6	11.1	10.5	10.5	8.17	7.53	5.47	97.9	98.3	97.7	107	71.9	14.9	13.2	16.6	9.71	8.66	6.45
Nc1nc(-c2nn(Cc3ccccc3F)c3ncccc23)nc(N)c1N1CCOCC1	88.9	87.4	96	96.1	101	110	99.3	116	104	93.5	89.8	98	84.6	103	115	106	111	111	121	94.2	89.6	80.6	93.8	85.6	113	99.9	104	85.2	104	126	101	96.2	90.9
Cc1ccc(NC(=O)c2ccc(CN3CCN(C)CC3)cc2)cc1Nc1nccc(-c2cccnc2)n1	68.4	92.2	114	101	104	111	96.5	101	99.2	101	93.9	81.2	114	134	134	124	140	115	114	109	110	99.4	72	103	100	94.7	114	107	96.6	112	80.1	100	86.6
O=C/1\C=C(/OC(=C1)/C2=C3SC4=C(SC3=CC=C2)C=CC=C4)N5CCOCC5	74.3	84.1	92.6	21.5	99.7	105	102	104	96.3	90.3	86.7	85.8	92.7	101	15.8	109	117	108	105	106	105	112	91.5	87.6	88	15.5	93	99.1	96	108	91.4	85.5	91.3
COc1ccc(CCN2CCN(CCCc3ccccc3)CC2)cc1OC	100	115	117	133	133	138	134	126	125	127	127	108	125	112	124	133	132	127	129	133	125	109	115	113	132	134	141	162	150	148	141	139	122
